pIC50: −log10 of the molar value.

The target of series [1] is T1, Kv1.5 (Homo sapiens, UniProt P22460).
T1 construct: expressed in transfected cells; host or cells: HEK or LTK- cells
Briefly: Kv1.5 Patch Clamp EP. It counts as cell-based. The settings on record: whole cell patch clamp. Here is the method: The external solution is standard Tyrodes solution. […] Inhibition was measured at the end of the 1 second pulses and expressed relative to controls. Initial Kv1.5 inhibition is estimated by single point determinations done at 1 μM.
In general terms: In patch-clamp work, channel activity is measured electrically.

Series [2] concerns L-type calcium channels. Briefly: FLIPR L-Type Calcium Channel Assay. The settings on record: HL-1 cells expressing endogenous L-type calcium channels; calcium influx after 20 mM KCl; read-out: L-type Ca^2+ IC50. It counts as cell-based, murine. In outline: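 After a 15 min compound pre-incubation at 37 °C with 2.5 mM probenecid, L-type channels were opened by depolarising with 20 mM KCl (final). Fluorescence (488 nm excitation, 510–570 nm emission) was read for 5 min.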

Series [3] addresses T2, HERG (Homo sapiens, UniProt Q12809).
Series [4] deals with T2, HERG. Briefly: HERG Patch Clamp EP. The settings on record: for inhibition at 10 µM: human, HEK cells stably overexpressing HERG.
[5] abbreviates: 1.0 μM, single point, Kv1.5 stably over expressed in HEK or LTK- cells.

T2 sequence (Q12809 whole entry): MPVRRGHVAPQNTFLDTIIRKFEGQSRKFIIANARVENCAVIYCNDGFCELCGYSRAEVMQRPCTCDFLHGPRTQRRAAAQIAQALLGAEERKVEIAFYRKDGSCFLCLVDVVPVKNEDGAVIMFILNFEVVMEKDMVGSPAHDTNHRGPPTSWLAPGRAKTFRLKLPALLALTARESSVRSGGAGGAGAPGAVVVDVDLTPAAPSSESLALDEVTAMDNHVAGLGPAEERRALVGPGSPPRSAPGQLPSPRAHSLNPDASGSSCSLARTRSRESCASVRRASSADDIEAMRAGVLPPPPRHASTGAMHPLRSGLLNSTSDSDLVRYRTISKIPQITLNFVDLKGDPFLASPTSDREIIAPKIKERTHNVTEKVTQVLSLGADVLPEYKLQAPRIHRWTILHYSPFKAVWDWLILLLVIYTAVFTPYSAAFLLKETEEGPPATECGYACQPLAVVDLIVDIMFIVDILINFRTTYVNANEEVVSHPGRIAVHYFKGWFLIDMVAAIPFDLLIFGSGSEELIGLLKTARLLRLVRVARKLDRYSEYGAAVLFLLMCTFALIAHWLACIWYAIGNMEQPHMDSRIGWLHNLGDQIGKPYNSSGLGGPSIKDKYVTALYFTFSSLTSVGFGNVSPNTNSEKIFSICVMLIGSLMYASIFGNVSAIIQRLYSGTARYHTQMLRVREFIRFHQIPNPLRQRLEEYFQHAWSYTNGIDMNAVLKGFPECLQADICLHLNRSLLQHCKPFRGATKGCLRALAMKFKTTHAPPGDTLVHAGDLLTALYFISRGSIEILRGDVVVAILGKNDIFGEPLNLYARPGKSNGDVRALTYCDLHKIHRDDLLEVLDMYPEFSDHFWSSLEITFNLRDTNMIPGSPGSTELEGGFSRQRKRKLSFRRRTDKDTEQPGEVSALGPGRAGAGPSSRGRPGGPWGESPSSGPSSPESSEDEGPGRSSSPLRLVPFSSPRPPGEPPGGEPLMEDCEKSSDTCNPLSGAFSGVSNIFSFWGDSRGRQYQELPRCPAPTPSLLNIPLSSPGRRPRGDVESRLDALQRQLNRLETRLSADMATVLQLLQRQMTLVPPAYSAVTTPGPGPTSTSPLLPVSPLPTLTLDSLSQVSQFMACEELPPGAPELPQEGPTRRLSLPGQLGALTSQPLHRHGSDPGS
T1 sequence (P22460 whole entry): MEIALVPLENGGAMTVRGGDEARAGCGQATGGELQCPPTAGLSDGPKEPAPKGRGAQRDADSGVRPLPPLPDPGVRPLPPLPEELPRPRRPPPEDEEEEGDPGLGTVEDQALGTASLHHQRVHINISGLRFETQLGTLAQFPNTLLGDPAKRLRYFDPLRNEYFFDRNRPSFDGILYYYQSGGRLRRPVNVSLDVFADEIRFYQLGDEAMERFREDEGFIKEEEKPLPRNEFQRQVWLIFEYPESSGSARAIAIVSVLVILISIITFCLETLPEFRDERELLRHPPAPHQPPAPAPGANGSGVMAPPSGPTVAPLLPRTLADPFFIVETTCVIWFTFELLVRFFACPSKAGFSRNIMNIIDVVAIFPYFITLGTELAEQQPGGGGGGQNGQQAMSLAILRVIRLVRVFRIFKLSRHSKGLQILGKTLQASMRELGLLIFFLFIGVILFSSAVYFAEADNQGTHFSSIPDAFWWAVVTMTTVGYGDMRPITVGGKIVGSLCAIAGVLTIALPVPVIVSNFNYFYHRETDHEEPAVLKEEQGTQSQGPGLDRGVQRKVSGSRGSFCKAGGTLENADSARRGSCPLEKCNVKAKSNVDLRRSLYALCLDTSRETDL

With “1-(Methoxycarbonylamino)-3-[2-(4-methoxyphenyl)ethyl]-4-[4-(tert-butyl)phenyl]-2-imidazolidinone [Compound 80]”, the “Kv1.5% inhibition @ 1.0 μM” value in series [1] (setting [5]) is given as 77%. Also, the pIC50 (in general, the IC50 on a negative log10 scale, so that one unit is a factor of ten) in series [2] is 4.70. The “HERG % Inhib. @ 10 μM” value in series [3] was 51%.
As for `COc1ccc(CCN2C(=O)N(N(CCn3ccnc3)C(=O)OC(C)(C)C)CC2c2ccc(C(C)(C)C)cc2)cc1` (centres unmarked) [Compound 146, tert-butyl {4-(4-tert-butylphenyl)-3-[2-(4-methoxyphenyl)ethyl]-2-oxoimidazolidin-1-yl}[2-(1H-imidazol-1-yl)ethyl]carbamate], the inhibition (as a rule, the change of the read-out against control, counted positive when it falls) at 1 µM in series [1] (setting [5]) came to 83%. In series [2], the negative-log IC50 (pIC50) is 4.82. The same compound came in with an inhibition at 10 µM in series [4] of 86%.
With `COc1ccc(CCN2C(=O)N(NS(C)(=O)=O)C[C@H]2c2ccc(OC(F)F)cc2)cc1` [Compound 170, N-{(4R)-4-[4-(difluoromethoxy)phenyl]-3-[2-(4-methoxyphenyl)ethyl]-2-oxoimidazolidin-1-yl}methanesulfonamide], in series [1] (setting [5]), 1 µM produced 49% inhibition. Moreover, in series [2], the negative-log IC50 (pIC50) was 4.52. The same compound gave an inhibition at 10 µM in series [4] of 62%.
In series [1] (setting [5]), `COc1ccc(CCN2C(=O)N(NS(C)(=O)=O)C[C@@H]2c2ccc(OC(F)F)cc2)cc1` [Compound 171, N-{(4S)-4-[4-(difluoromethoxy)phenyl]-3-[2-(4-methoxyphenyl)ethyl]-2-oxoimidazolidin-1-yl}methanesulfonamide] gave an inhibition at 1 µM of 71%. Also, the pIC50 in series [1] (HEK or LTK- cells, at least four concentrations, n=3) is 6.27; in series [2], 4.52; in series [4] it was 5.24. The inhibition at 10 µM in series [4] was determined as 55%.
`COc1ccc(CCN2C(=O)N(NS(C)(=O)=O)C[C@H]2c2ccc(C(C)(C)C)cc2)cc1` [Compound 172, N-{(4R)-4-(4-tert-butylphenyl)-3-[2-(4-methoxyphenyl)ethyl]-2-oxoimidazolidin-1-yl}methanesulfonamide] gave an inhibition at 1 µM in series [1] (setting [5]) of 55%. For the same compound, in series [2], the pIC50 is 5.01. The compound also registered an inhibition at 10 µM in series [4] of 51%.
In turn, `COc1ccc(CCN2C(=O)N(NS(C)(=O)=O)C[C@@H]2c2ccc(C(C)(C)C)cc2)cc1` [Compound 173, N-{(4S)-4-(4-tert-butylphenyl)-3-[2-(4-methoxyphenyl)ethyl]-2-oxoimidazolidin-1-yl}methanesulfonamide] showed an inhibition at 1 µM in series [1] (setting [5]) of 94%. For the same compound, the pIC50 in series [2] was 4.84. This compound displayed an inhibition at 10 µM in series [4] of 48%.

Values taken from US7504517B2, “Kv1.5 potassium channel inhibitors” (Wyeth, priority 2006, dated 2009).
